Counter-ions that a name gives are not always drawn.
Experiments:
Healthy volunteers = assay: Resting anal pressure by anorectal manometry after intraanal administration (Example 1); assay type: in vivo, human
Description: Preparations of phenylephrine hydrochloride and oxymetazoline were prepared. The oxymetazoline was first dissolved in propylene glycol and then added to polyethylene glycol 1500 to obtain a solution in the concentration of 1 mg/1 mL.
The preparations were administered intraanally. The doses are expressed as both a volume of a concentration of the drug solution and also as milligrams of the active ingredient.
Resting anal pressure was determined by anorectal manometry for measuring contractility in the anus and rectum using the ManoScan 360™ catheter (Sierra Scientific Instruments).
Healthy volunteers, men and women of 18 to 55 years old received intraanal dose of 40 mg (40 mL) or 80 mg (80 mL) phenylephrine or a dose of 1 mg oxymetazoline (1 mL; 0.1%). None of the volunteers had symptoms of anal incontinence nor previous anal surgery and presumed to have intact internal and external anal sphincters. Pre-treatment mean resting pressure was 85 mmHg for the phenyephrine 40 mg group, and 81 mmHg for the phenylephrine 80 mg group.
After the application of the aforementioned doses of phenylephrine and oxymetazoline, resting anal pressure was determined at the following time intervals: […], […] The results are summarized in Tables 1 and 2 below and in FIG. 1.

healthy human subjects [1] = assay: Change in resting anal pressure at different oxymetazoline doses (Example 2); assay type: in vivo
healthy human subjects [2] = assay: Cardiac effect of oxymetazoline: blood pressure and heart rate (Example 2); assay type: in vivo
Excerpt: The effect of oxymetazoline on cardiac parameters was examined in four healthy human subjects.

[3] = Solubility of oxymetazoline; assay type: physicochemical; conditions: aqueous and non aqueous media
[4] = test system: patient having a reduced anal resting pressure; conditions: phenylephrine concentrations below 10%, topical; cited from earlier work
[5] = on lowering the pH of formulations, even with PVPs or PEGs; cited from earlier work
[6] = oxymetazoline 1 mg (1 mL; 0.1%) intraanal, time 0 min
[7] = oxymetazoline 1 mg (1 mL; 0.1%) intraanal, time 60 min
[8] = oxymetazoline 1 mg (1 mL; 0.1%) intraanal, time 180 min
[9] = oxymetazoline 1 mg (1 mL; 0.1%) intraanal, time 300 min
[10] = Phenylephrine 40 mg intraanal, time 90 min
[11] = Phenylephrine 40 mg intraanal, time 180 min
[12] = Phenylephrine 40 mg intraanal, time 240 min
[13] = Phenylephrine 80 mg intraanal, time 90 min
[14] = Phenylephrine 80 mg intraanal, time 180 min
[15] = Phenylephrine 80 mg intraanal, time 240 min

Cc1cc(C(C)(C)C)c(O)c(C)c1CC1=NCCN1 [Oxymetazoline, 3-(4,5-dihydro-1H-imidazol-2-ylmethyl)-2,4-dimethyl-6-tert-butyl-phenol]
Change Relative to T = 0 (resting anal pressure) (Healthy volunteers; [6]): 0 mmHg
Resting anal pressure (Healthy volunteers; [6]): 75 mmHg
Change Relative to T = 0 (resting anal pressure) (Healthy volunteers; [7]): 18 mmHg
Resting anal pressure (Healthy volunteers; [7]): 93 mmHg
Change Relative to T = 0 (resting anal pressure) (Healthy volunteers; [8]): 28 mmHg
Resting anal pressure (Healthy volunteers; [8]): 103 mmHg
Change Relative to T = 0 (resting anal pressure) (Healthy volunteers; [9]): 27 mmHg
Resting anal pressure (Healthy volunteers; [9]): 102 mmHg
Increase in the maximum resting pressure relative to the pressure before treatment (Healthy volunteers; oxymetazoline 1 mg intraanal): about 30 mmHg
Time for which the increased resting anal pressure was maintained (Healthy volunteers; oxymetazoline 1 mg intraanal, duration of the recording): at least 5 hours
Change in resting anal pressure (healthy human subjects [1]; Oxymetazoline dose 0.01%): 11 mmHg
Change in resting anal pressure (healthy human subjects [1]; Oxymetazoline dose 0.1%): 18.5 mmHg
Significance of change in resting anal pressure with respect to baseline (healthy human subjects [1]; Oxymetazoline dose 0.1%): statistically significant
Change in resting anal pressure (healthy human subjects [1]; Oxymetazoline dose 0.5%): 24.75 mmHg
Significance of change in resting anal pressure with respect to baseline (healthy human subjects [1]; Oxymetazoline dose 0.5%): statistically significant
Change in diastolic blood pressure (healthy human subjects [2]; Oxymetazoline dose 0.01%): 2 mmHg
Change in heart rate (healthy human subjects [2]; Oxymetazoline dose 0.01%): −3 beats/min
Change in systolic Blood pressure (healthy human subjects [2]; Oxymetazoline dose 0.01%): 6 mmHg
Change in diastolic blood pressure (healthy human subjects [2]; Oxymetazoline dose 0.1%): 0 mmHg
Change in heart rate (healthy human subjects [2]; Oxymetazoline dose 0.1%): 0 beats/min
Change in systolic Blood pressure (healthy human subjects [2]; Oxymetazoline dose 0.1%): 5 mmHg
Change in diastolic blood pressure (healthy human subjects [2]; Oxymetazoline dose 0.5%): 1 mmHg
Change in heart rate (healthy human subjects [2]; Oxymetazoline dose 0.5%): 1 beats/min
Change in systolic Blood pressure (healthy human subjects [2]; Oxymetazoline dose 0.5%): 3 mmHg
Changes in the diastolic blood pressure, systolic blood pressure or in the heart rate (healthy human subjects [2]; low doses of about 0.1%): did not induce any changes
Cardiovascular side effect (healthy human subjects [2]; low doses of oxymetazoline (0.01%-0.5%)): do not induce any cardiovascular side effect
Solubility [3]: soluble in aqueous and non aqueous media

CNC[C@H](O)c1cccc(O)c1 [Phenylephrine]
Maximum increase in anal pressure (Healthy volunteers; 40 mg phenylephrine intraanal): 10 mmHg
Time to reach the initial (pre-treatment) resting anal pressure (Healthy volunteers; 40 mg phenylephrine intraanal): less than 5 hours
Maximum increase in anal pressure (Healthy volunteers; 80 mg phenylephrine intraanal): 22.5 mmHg
Time in which increased pressure dropped nearly to the pressure prior to treatment (Healthy volunteers; 80 mg phenylephrine intraanal): ≤ 3 h
Time in which resting anal pressure dropped down to the pressure observed prior to treatment (Healthy volunteers; 80 mg phenylephrine intraanal): less than 5 hours
Change Relative to T = 0 (resting anal pressure) (Healthy volunteers; Phenylephrine 40 mg intraanal, time 0 min): 0 mmHg
Resting anal pressure (Healthy volunteers; Phenylephrine 40 mg intraanal, time 0 min (pre-treatment)): 85 mmHg
Change Relative to T = 0 (resting anal pressure) (Healthy volunteers; [10]): 10 mmHg
Resting anal pressure (Healthy volunteers; [10]): 95 mmHg
Change Relative to T = 0 (resting anal pressure) (Healthy volunteers; [11]): 7.5 mmHg
Resting anal pressure (Healthy volunteers; [11]): 92.5 mmHg
Change Relative to T = 0 (resting anal pressure) (Healthy volunteers; [12]): 0 (±1.75) mmHg
Resting anal pressure (Healthy volunteers; [12]): 83.25 mmHg
Change Relative to T = 0 (resting anal pressure) (Healthy volunteers; Phenylephrine 80 mg intraanal, time 0 min): 0 mmHg
Resting anal pressure (Healthy volunteers; Phenylephrine 80 mg intraanal, time 0 min (pre-treatment)): 81 mmHg
Change Relative to T = 0 (resting anal pressure) (Healthy volunteers; [13]): 22.5 mmHg
Resting anal pressure (Healthy volunteers; [13]): 103.5 mmHg
Change Relative to T = 0 (resting anal pressure) (Healthy volunteers; [14]): 6.75 mmHg
Resting anal pressure (Healthy volunteers; [14]): 87.75 mmHg
Change Relative to T = 0 (resting anal pressure) (Healthy volunteers; [15]): 0 (±1.75) mmHg
Resting anal pressure (Healthy volunteers; [15]): 80.25 mmHg
Increase in the maximum resting pressure [4]: no significant increase

Cc1cc(C(C)(C)C)c(O)c(C)c1CC1=NCCN1 [oxymetazoline HCl, 6-tert-butyl-3-(2-imidazolin-2-ylmethyl)-2,4-dimentylphenol hydrochloride]
Photodegradation level [5]: significantly reduced

— US9849114B2, “Oxymetazoline for the treatment of ano-rectal disorders” (RDD Pharma Ltd., priority 2011, dated 2017)
